Assay results published in the supplement of paper PMC8882468.

Tested on: HCI-024 (organoid from a breast cancer xenograft)
Assay: CTG-3D luminescence at 96 h relative to day-0 seeding control (ratio to day 0); higher = more growth / less cytotoxicity; PDxO 3D drug screen, 96 h, CTG-3D normalised to day-0 seeding control.
Conditions: 10 µM; days in culture: 122

Compound | CTG-3D luminescence at 96 h
COc1cc2c(Oc3ccc4[nH]c(C)cc4c3F)ncnc2cc1OCCCN1CCCC1 [cediranib] | 0.0558
CC(C)n1nc(-c2ccc3oc(N)nc3c2)c2c(N)ncnc21 [sapanisertib] | 0.81
Cc1cc(Nc2ncnc3ccc(NC4=NC(C)(C)CO4)cc23)ccc1Oc1ccn2ncnc2c1 [tucatinib] | 1.83
C[C@H](NC(=O)CCC(F)(F)F)C(=O)N[C@@H]1C(=O)N(CCO)c2ncccc2-c2ccccc21 [crenigacestat] | 2.75
C[C@]12CC[C@@H]3c4ccc(O)cc4C[C@@H](CCCCCCCCC[S+]([O-])CCCC(F)(F)C(F)(F)F)[C@H]3[C@@H]1CC[C@@H]2O (some centres not stated) [fulvestrant] | 2.65
O=C(c1ccc(F)c(F)c1Nc1ccc(I)cc1F)N1CC(O)([C@@H]2CCCCN2)C1 [cobimetinib] | 0.979
O=C(/C=C/c1cccnc1)NCCCCC1CCN(C(=O)c2ccccc2)CC1 [FK866] | 0.222
CS(=O)(=O)c1ccc(C(=O)Nc2ccc(Cl)c(-c3ccccn3)c2)c(Cl)c1 [vismodegib] | 2.75
C=CCn1c(=O)c2cnc(Nc3ccc(N4CCN(C)CC4)cc3)nc2n1-c1cccc(C(C)(C)O)n1 [adavosertib] | 0.414

Same assay, conditions: 10 µM; days in culture: 163

Compound | CTG-3D luminescence at 96 h
COc1cc2c(Oc3ccc4[nH]c(C)cc4c3F)ncnc2cc1OCCCN1CCCC1 [cediranib] | 0.416
CC(C)n1nc(-c2ccc3oc(N)nc3c2)c2c(N)ncnc21 [sapanisertib] | 0.902
Cc1cc(Nc2ncnc3ccc(NC4=NC(C)(C)CO4)cc23)ccc1Oc1ccn2ncnc2c1 [tucatinib] | 1.88
C[C@H](NC(=O)CCC(F)(F)F)C(=O)N[C@@H]1C(=O)N(CCO)c2ncccc2-c2ccccc21 [crenigacestat] | 2.38
C[C@]12CC[C@@H]3c4ccc(O)cc4C[C@@H](CCCCCCCCC[S+]([O-])CCCC(F)(F)C(F)(F)F)[C@H]3[C@@H]1CC[C@@H]2O (some centres not stated) [fulvestrant] | 1.88
O=C(c1ccc(F)c(F)c1Nc1ccc(I)cc1F)N1CC(O)([C@@H]2CCCCN2)C1 [cobimetinib] | 0.872
O=C(/C=C/c1cccnc1)NCCCCC1CCN(C(=O)c2ccccc2)CC1 [FK866] | 0.166
CS(=O)(=O)c1ccc(C(=O)Nc2ccc(Cl)c(-c3ccccn3)c2)c(Cl)c1 [vismodegib] | 2.36
C=CCn1c(=O)c2cnc(Nc3ccc(N4CCN(C)CC4)cc3)nc2n1-c1cccc(C(C)(C)O)n1 [adavosertib] | 0.466

Same assay, conditions: 100 µM; days in culture: 105

Compound | CTG-3D luminescence at 96 h
COc1cc2c(Oc3ccc4[nH]c(C)cc4c3F)ncnc2cc1OCCCN1CCCC1 [cediranib] | -0.000777
CC(C)n1nc(-c2ccc3oc(N)nc3c2)c2c(N)ncnc21 [sapanisertib] | 0.243
Cc1cc(Nc2ncnc3ccc(NC4=NC(C)(C)CO4)cc23)ccc1Oc1ccn2ncnc2c1 [tucatinib] | 0.0289
C[C@H](NC(=O)CCC(F)(F)F)C(=O)N[C@@H]1C(=O)N(CCO)c2ncccc2-c2ccccc21 [crenigacestat] | 1.62
C[C@]12CC[C@@H]3c4ccc(O)cc4C[C@@H](CCCCCCCCC[S+]([O-])CCCC(F)(F)C(F)(F)F)[C@H]3[C@@H]1CC[C@@H]2O (some centres not stated) [fulvestrant] | 1.67
O=C(c1ccc(F)c(F)c1Nc1ccc(I)cc1F)N1CC(O)([C@@H]2CCCCN2)C1 [cobimetinib] | -0.00552
O=C(/C=C/c1cccnc1)NCCCCC1CCN(C(=O)c2ccccc2)CC1 [FK866] | 0.272
CS(=O)(=O)c1ccc(C(=O)Nc2ccc(Cl)c(-c3ccccn3)c2)c(Cl)c1 [vismodegib] | 1.09
C=CCn1c(=O)c2cnc(Nc3ccc(N4CCN(C)CC4)cc3)nc2n1-c1cccc(C(C)(C)O)n1 [adavosertib] | 0.179

Same assay, conditions: 100 µM; days in culture: 122

Compound | CTG-3D luminescence at 96 h
COc1cc2c(Oc3ccc4[nH]c(C)cc4c3F)ncnc2cc1OCCCN1CCCC1 [cediranib] | -0.000119
CC(C)n1nc(-c2ccc3oc(N)nc3c2)c2c(N)ncnc21 [sapanisertib] | 0.3
Cc1cc(Nc2ncnc3ccc(NC4=NC(C)(C)CO4)cc23)ccc1Oc1ccn2ncnc2c1 [tucatinib] | 0.0421
C[C@H](NC(=O)CCC(F)(F)F)C(=O)N[C@@H]1C(=O)N(CCO)c2ncccc2-c2ccccc21 [crenigacestat] | 2
C[C@]12CC[C@@H]3c4ccc(O)cc4C[C@@H](CCCCCCCCC[S+]([O-])CCCC(F)(F)C(F)(F)F)[C@H]3[C@@H]1CC[C@@H]2O (some centres not stated) [fulvestrant] | 1.86
O=C(c1ccc(F)c(F)c1Nc1ccc(I)cc1F)N1CC(O)([C@@H]2CCCCN2)C1 [cobimetinib] | -0.000547
O=C(/C=C/c1cccnc1)NCCCCC1CCN(C(=O)c2ccccc2)CC1 [FK866] | 0.172
CS(=O)(=O)c1ccc(C(=O)Nc2ccc(Cl)c(-c3ccccn3)c2)c(Cl)c1 [vismodegib] | 1.23
C=CCn1c(=O)c2cnc(Nc3ccc(N4CCN(C)CC4)cc3)nc2n1-c1cccc(C(C)(C)O)n1 [adavosertib] | 0.145

Same assay, conditions: 100 µM; days in culture: 163

Compound | CTG-3D luminescence at 96 h
COc1cc2c(Oc3ccc4[nH]c(C)cc4c3F)ncnc2cc1OCCCN1CCCC1 [cediranib] | 0.00136
CC(C)n1nc(-c2ccc3oc(N)nc3c2)c2c(N)ncnc21 [sapanisertib] | 0.363
Cc1cc(Nc2ncnc3ccc(NC4=NC(C)(C)CO4)cc23)ccc1Oc1ccn2ncnc2c1 [tucatinib] | 0.0384
C[C@H](NC(=O)CCC(F)(F)F)C(=O)N[C@@H]1C(=O)N(CCO)c2ncccc2-c2ccccc21 [crenigacestat] | 1.88
C[C@]12CC[C@@H]3c4ccc(O)cc4C[C@@H](CCCCCCCCC[S+]([O-])CCCC(F)(F)C(F)(F)F)[C@H]3[C@@H]1CC[C@@H]2O (some centres not stated) [fulvestrant] | 2.09
O=C(c1ccc(F)c(F)c1Nc1ccc(I)cc1F)N1CC(O)([C@@H]2CCCCN2)C1 [cobimetinib] | -0.0079
O=C(/C=C/c1cccnc1)NCCCCC1CCN(C(=O)c2ccccc2)CC1 [FK866] | 0.306
CS(=O)(=O)c1ccc(C(=O)Nc2ccc(Cl)c(-c3ccccn3)c2)c(Cl)c1 [vismodegib] | 1.4
C=CCn1c(=O)c2cnc(Nc3ccc(N4CCN(C)CC4)cc3)nc2n1-c1cccc(C(C)(C)O)n1 [adavosertib] | 0.225

Same assay, conditions: 625 fM; days in culture: 105

Compound | CTG-3D luminescence at 96 h
COc1cc2c(Oc3ccc4[nH]c(C)cc4c3F)ncnc2cc1OCCCN1CCCC1 [cediranib] | 1.39
CC(C)n1nc(-c2ccc3oc(N)nc3c2)c2c(N)ncnc21 [sapanisertib] | 1.88
Cc1cc(Nc2ncnc3ccc(NC4=NC(C)(C)CO4)cc23)ccc1Oc1ccn2ncnc2c1 [tucatinib] | 2.2
C[C@H](NC(=O)CCC(F)(F)F)C(=O)N[C@@H]1C(=O)N(CCO)c2ncccc2-c2ccccc21 [crenigacestat] | 1.56
C[C@]12CC[C@@H]3c4ccc(O)cc4C[C@@H](CCCCCCCCC[S+]([O-])CCCC(F)(F)C(F)(F)F)[C@H]3[C@@H]1CC[C@@H]2O (some centres not stated) [fulvestrant] | 1.87
O=C(c1ccc(F)c(F)c1Nc1ccc(I)cc1F)N1CC(O)([C@@H]2CCCCN2)C1 [cobimetinib] | 2.08
O=C(/C=C/c1cccnc1)NCCCCC1CCN(C(=O)c2ccccc2)CC1 [FK866] | 2.1
CS(=O)(=O)c1ccc(C(=O)Nc2ccc(Cl)c(-c3ccccn3)c2)c(Cl)c1 [vismodegib] | 1.64
C=CCn1c(=O)c2cnc(Nc3ccc(N4CCN(C)CC4)cc3)nc2n1-c1cccc(C(C)(C)O)n1 [adavosertib] | 2.06

Same assay, conditions: 625 fM; days in culture: 122

Compound | CTG-3D luminescence at 96 h
COc1cc2c(Oc3ccc4[nH]c(C)cc4c3F)ncnc2cc1OCCCN1CCCC1 [cediranib] | 2.28
CC(C)n1nc(-c2ccc3oc(N)nc3c2)c2c(N)ncnc21 [sapanisertib] | 2.57
Cc1cc(Nc2ncnc3ccc(NC4=NC(C)(C)CO4)cc23)ccc1Oc1ccn2ncnc2c1 [tucatinib] | 2.27
C[C@H](NC(=O)CCC(F)(F)F)C(=O)N[C@@H]1C(=O)N(CCO)c2ncccc2-c2ccccc21 [crenigacestat] | 2.55
C[C@]12CC[C@@H]3c4ccc(O)cc4C[C@@H](CCCCCCCCC[S+]([O-])CCCC(F)(F)C(F)(F)F)[C@H]3[C@@H]1CC[C@@H]2O (some centres not stated) [fulvestrant] | 2.53
O=C(c1ccc(F)c(F)c1Nc1ccc(I)cc1F)N1CC(O)([C@@H]2CCCCN2)C1 [cobimetinib] | 3.01
O=C(/C=C/c1cccnc1)NCCCCC1CCN(C(=O)c2ccccc2)CC1 [FK866] | 2.91
CS(=O)(=O)c1ccc(C(=O)Nc2ccc(Cl)c(-c3ccccn3)c2)c(Cl)c1 [vismodegib] | 2.04
C=CCn1c(=O)c2cnc(Nc3ccc(N4CCN(C)CC4)cc3)nc2n1-c1cccc(C(C)(C)O)n1 [adavosertib] | 2.52

Same assay, conditions: 625 fM; days in culture: 163

Compound | CTG-3D luminescence at 96 h
COc1cc2c(Oc3ccc4[nH]c(C)cc4c3F)ncnc2cc1OCCCN1CCCC1 [cediranib] | 2.19
CC(C)n1nc(-c2ccc3oc(N)nc3c2)c2c(N)ncnc21 [sapanisertib] | 1.85
Cc1cc(Nc2ncnc3ccc(NC4=NC(C)(C)CO4)cc23)ccc1Oc1ccn2ncnc2c1 [tucatinib] | 2.18
C[C@H](NC(=O)CCC(F)(F)F)C(=O)N[C@@H]1C(=O)N(CCO)c2ncccc2-c2ccccc21 [crenigacestat] | 1.86
C[C@]12CC[C@@H]3c4ccc(O)cc4C[C@@H](CCCCCCCCC[S+]([O-])CCCC(F)(F)C(F)(F)F)[C@H]3[C@@H]1CC[C@@H]2O (some centres not stated) [fulvestrant] | 1.91
O=C(c1ccc(F)c(F)c1Nc1ccc(I)cc1F)N1CC(O)([C@@H]2CCCCN2)C1 [cobimetinib] | 2.15
O=C(/C=C/c1cccnc1)NCCCCC1CCN(C(=O)c2ccccc2)CC1 [FK866] | 1.89
CS(=O)(=O)c1ccc(C(=O)Nc2ccc(Cl)c(-c3ccccn3)c2)c(Cl)c1 [vismodegib] | 2.01
C=CCn1c(=O)c2cnc(Nc3ccc(N4CCN(C)CC4)cc3)nc2n1-c1cccc(C(C)(C)O)n1 [adavosertib] | 2.56
